Test results: patent US10526352B2, “Tricyclic benzoxaborole compounds and uses thereof” (GlaxoSmithKline Intellectual Property (No.2) Limited, priority 2013, dated 2020)
Converted amounts (≈) assume the structure as drawn. Like-named read-outs stand apart in the source and are kept apart here.

Experiments:
Mtb LeuRS = Mtb LeuRS (Mycobacterium tuberculosis, UniProt P9WFV1); experiment: biochemical; parameters: species or system M. tuberculosis
[1] = system: M. tuberculosis standard strain Mtb H37Rv; experiment: MIC determination against mycobacteria (resazurin, Middlebrook 7H9); format: cell-based, Mycobacterium tuberculosis
P. aeruginosa PA01 = experiment: General antimicrobial activity assay (CLSI broth microdilution); format: cell-based, Pseudomonas aeruginosa
Experimental: (§1) Whole-cell antimicrobial activity was determined by broth microdilution using the Clinical and Laboratory Standards Institute (CLSI) recommended procedure, Document M7-A7, “Methods for Dilution Susceptibility Tests for Bacteria that Grow Aerobically”.

A. baumannii ATCC 17978 = experiment: as above; format: cell-based, Acinetobacter baumannii
Experimental: as §1

Human cyto LeuRS = Human cyto LeuRS (Homo sapiens, UniProt Q9P2J5); experiment: LeuRS aminoacylation assay, IC50 determination; format: biochemical
E. coli K12 tolC::Tn10 = experiment: General antimicrobial activity assay (CLSI broth microdilution); format: cell-based, Escherichia coli
Experimental: as §1

E. coli K12 = experiment: as above; format: cell-based, Escherichia coli
Experimental: as §1

[2] = HepG2 Tox50 (A) / Mtb H37Rv MIC (B)
[3] = Mycobacterium tuberculosis, H37RV, read-out: Mtb H37Rv MIC (B)

Sequence of Mtb LeuRS (P9WFV1 whole entry): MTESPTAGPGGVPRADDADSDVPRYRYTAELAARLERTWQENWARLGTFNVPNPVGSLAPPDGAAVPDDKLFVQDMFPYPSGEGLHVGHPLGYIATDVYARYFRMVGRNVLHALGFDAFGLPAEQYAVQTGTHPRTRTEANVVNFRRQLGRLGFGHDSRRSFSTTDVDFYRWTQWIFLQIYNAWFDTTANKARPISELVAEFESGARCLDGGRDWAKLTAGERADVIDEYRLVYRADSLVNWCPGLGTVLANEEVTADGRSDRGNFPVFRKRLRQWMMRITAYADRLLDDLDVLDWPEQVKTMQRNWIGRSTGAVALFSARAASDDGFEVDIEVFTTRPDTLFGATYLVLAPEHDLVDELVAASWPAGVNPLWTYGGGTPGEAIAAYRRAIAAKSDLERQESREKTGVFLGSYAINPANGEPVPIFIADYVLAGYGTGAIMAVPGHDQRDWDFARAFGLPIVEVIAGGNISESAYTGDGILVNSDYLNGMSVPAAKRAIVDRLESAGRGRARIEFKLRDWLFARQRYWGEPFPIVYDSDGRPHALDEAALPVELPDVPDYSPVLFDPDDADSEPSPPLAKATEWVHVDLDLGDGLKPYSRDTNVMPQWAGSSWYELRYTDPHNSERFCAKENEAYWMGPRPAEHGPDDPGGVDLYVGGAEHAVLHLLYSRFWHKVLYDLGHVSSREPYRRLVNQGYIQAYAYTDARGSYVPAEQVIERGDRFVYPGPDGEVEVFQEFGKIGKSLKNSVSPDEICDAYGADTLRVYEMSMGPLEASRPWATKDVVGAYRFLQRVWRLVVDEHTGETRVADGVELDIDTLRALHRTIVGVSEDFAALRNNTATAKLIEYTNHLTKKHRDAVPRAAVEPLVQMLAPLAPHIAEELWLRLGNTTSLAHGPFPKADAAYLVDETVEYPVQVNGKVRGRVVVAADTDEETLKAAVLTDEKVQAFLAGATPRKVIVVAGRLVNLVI
Sequence of Human cyto LeuRS (Q9P2J5 whole entry): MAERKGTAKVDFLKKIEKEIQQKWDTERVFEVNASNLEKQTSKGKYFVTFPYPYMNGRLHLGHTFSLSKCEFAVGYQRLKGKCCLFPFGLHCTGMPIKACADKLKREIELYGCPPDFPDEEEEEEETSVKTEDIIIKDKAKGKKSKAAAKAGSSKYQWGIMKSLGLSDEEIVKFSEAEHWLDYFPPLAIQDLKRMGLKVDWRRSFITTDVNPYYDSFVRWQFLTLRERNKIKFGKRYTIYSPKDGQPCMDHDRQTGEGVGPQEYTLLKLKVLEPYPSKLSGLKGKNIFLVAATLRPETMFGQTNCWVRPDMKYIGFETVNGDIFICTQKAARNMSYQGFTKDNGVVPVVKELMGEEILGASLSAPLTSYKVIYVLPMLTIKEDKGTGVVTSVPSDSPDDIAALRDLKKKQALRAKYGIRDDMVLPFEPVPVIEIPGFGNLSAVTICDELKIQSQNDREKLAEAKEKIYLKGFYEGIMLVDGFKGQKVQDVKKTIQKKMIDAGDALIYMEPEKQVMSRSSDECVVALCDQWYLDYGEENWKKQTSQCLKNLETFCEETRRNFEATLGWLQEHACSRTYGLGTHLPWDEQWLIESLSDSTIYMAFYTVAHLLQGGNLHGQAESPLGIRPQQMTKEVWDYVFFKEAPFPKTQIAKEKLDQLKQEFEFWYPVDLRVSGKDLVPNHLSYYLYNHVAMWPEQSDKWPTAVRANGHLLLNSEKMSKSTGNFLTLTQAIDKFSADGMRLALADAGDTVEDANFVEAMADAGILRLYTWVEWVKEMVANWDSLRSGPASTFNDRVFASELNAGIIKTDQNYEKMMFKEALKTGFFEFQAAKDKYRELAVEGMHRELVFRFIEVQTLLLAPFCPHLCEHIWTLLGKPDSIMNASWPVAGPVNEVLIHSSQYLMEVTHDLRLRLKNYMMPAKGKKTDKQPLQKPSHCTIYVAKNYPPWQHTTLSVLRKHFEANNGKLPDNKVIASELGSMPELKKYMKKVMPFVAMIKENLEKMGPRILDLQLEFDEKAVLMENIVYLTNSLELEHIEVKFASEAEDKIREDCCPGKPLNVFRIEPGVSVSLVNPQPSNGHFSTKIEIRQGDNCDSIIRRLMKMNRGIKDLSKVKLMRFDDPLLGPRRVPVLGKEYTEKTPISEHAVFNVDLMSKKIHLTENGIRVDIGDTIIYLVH

Row | Compound | IC50 (Mtb LeuRS) [nM] | Selectivity Index (A/B) (HepG2 cells; [2]) | HepG2 cell 48 h Tox50 (A) (HepG2 cells; human, 48 h) [µM] | MIC [1, 3] [µM] | Selectivity Index (A/B) (HepG2 cells) | HepG2 cell 48 h Tox50 (A) (HepG2 cells; 48 h) [µM] | MIC: P. aeruginosa PA01 (P. aeruginosa PA01) [µg/mL] | MIC: A. baumannii ATCC 17978 (A. baumannii ATCC 17978) [µg/mL] | IC50 (Human cyto LeuRS) [µM] | MIC: E. coli K12 tolC::Tn10 (E. coli K12 tolC::Tn10) [µg/mL] | MIC: E. coli K12 (E. coli K12) [µg/mL] | MIC ([1]; Mycobacterium tuberculosis, H37RV; read-out: Mtb H37Rv MIC (B)) [µM] | HepG2 cell 48 h, figure in brackets beside Tox50 (HepG2 cells; 48 h, printed as >50 (40%)) [%]
1 | C[C@]1(CO)COc2ccc(Br)c3c2B(OC3CN)O1 (stereo partly drawn) [Example 17, ((2S, 8S, or 2R, 8R)-2-(aminomethyl)-3-bromo-8-methyl-7,8-dihydro-2H-1,6,9-trioxa-9a-borabenzo[cd]azulen-8-yl)methanol] | 1970 | >50 | >50 | 0.925 (≈ 0.303 µg/mL) |  |  |  |  |  |  |  |  | 
2 | CCOc1ccc(Br)c2c1B(O)O[C@@H]2CN [Example C4-Br, reference compound] |  |  |  |  | 320 | 32 | 64 (≈ 224 µM) | 64 (≈ 224 µM) | 67 | 64 (≈ 224 µM) | 64 (≈ 224 µM) | 0.1 (≈ 0.0286 µg/mL) | 
3 | CC1COc2cccc3c2B(O1)OC3CN (stereo not shown) [Example C11-H, reference compound] |  | >32 | > 50 | 1.56 (≈ 0.342 µg/mL) |  |  | 2 (≈ 9.13 µM) | 4 (≈ 18.3 µM) |  | 2 (≈ 9.13 µM) | 2 (≈ 9.13 µM) |  | 40
4 | CC1(C)COc2cccc3c2B(OC3CN)O1 (stereo not shown) [Example C12-H, reference compound] |  | >4.9 | 24.5 | > 5 |  |  | 16 (≈ 68.6 µM) | 4 (≈ 17.2 µM) |  | 2 (≈ 8.58 µM) | 4 (≈ 17.2 µM) |  | 
5 | CC1(C)COc2c(Cl)ccc3c2B(O[C@@H]3CN)O1 [Example C13-Cl, reference compound] | 2160 | >10 | >50 | 5 (≈ 1.34 µg/mL) |  |  |  |  |  |  |  |  | 
